Series [1] relates to Mus musculus. Kind of series: Toxicity in mouse allografted with mouse L1210 cells at 25 to 400 mg/kg, ip. More on the design: dose 25-400 mg/kg, route intraperitoneal. It is filed as organism-based. As to conditions: in vivo.
A short description of series [2]: Octanol-water partition coefficient, log P of the compound. The format is physicochemical.
A further series relates to L1210. As to the kind of experiment: Antitumor activity against mouse L1210 cells allografted in mouse assessed as tumor growth inhibition at 400 mg/kg, ip. It is filed as functional, organism-based. More on the design: dose 400 mg/kg.
Series [3] deals with Mus musculus. Kind of series: Toxicity in mouse allografted with mouse L1210 cells at 200 mg/kg, ip. The settings on record: in vivo. More on the design: dose 200 mg/kg, route intraperitoneal. It is filed as organism-based.

Calls of active or inactive are those of the source. The calls are words filed in the database; no cut-off is given here.

Take `CC(=O)Nc1ncc2ccccc2c1-c1ccc(NC(=O)CN(CCCl)CCCl)cc1`: the Activity entry in the series with Mus musculus [1] is “Non-toxic”. The same compound registered a logP in series [2] of 3.87. Moreover, in the series on L1210, the TGI entry was “inactive”.

With `Nc1ncc2ccccc2c1-c1ccc(NC(=O)CN(CCCl)CCCl)cc1`, the Activity entry in the series on Mus musculus [1] is “Non-toxic”. The TGI result in the series with L1210 was “inactive”.

In series [2], `CCNc1ncc2ccccc2c1-c1ccc(NC(=O)CCN(CCCl)CCCl)cc1.Cl` returned a logP of 7.43. Further, the Activity result in the series with Mus musculus [3] was “Toxic”. Further, the TGI result in the series with L1210 was “inactive”.

For the compound `CC(=O)Nc1ncc2ccccc2c1-c1ccc(NC(=O)CCN(CCCl)CCCl)cc1`, the Activity result in the series with Mus musculus [1] is “Non-toxic”. Further, in the series on L1210, the TGI result is “inactive”.

`CC(=O)Nc1ncc2ccccc2c1-c1ccc(N(CCCl)CCCl)cc1`: the Activity entry in the series on Mus musculus [1] is on record as “Non-toxic”. Moreover, the TGI entry in the series on L1210 was “inactive”.

Consider `CC(=O)Nc1nc(Br)c2ccccc2c1-c1ccc(N(CCCl)CCCl)cc1.Cl`, for which the Activity result in the series with Mus musculus [1] is listed as “Non-toxic”. In addition, in the series on L1210, the TGI entry is “inactive”.

Consider `Nc1ccc(-c2c(N)ncc3ccccc23)cc1`, for which the logP in series [2] stood at 2.58.

Broadly, the logP is a log measure of how a compound divides between an organic and an aqueous phase. Read a low logP as lower lipophilicity.

These data come from ChEMBL document CHEMBL3271937, “Isoquinolines. 6. Potential central nervous system antitumor agents. Nitrogen mustards of 3-amino-4-(p-aminophenyl)isoquinoline” (J Med Chem, 1977).
